Non-standard residues stand in square brackets, D forms with d. Residues, ends and D or L forms follow the SMILES beside them. *: point of attachment. Octanoyl = CCCCCCCC(=O)*; pHOPA = not defined here; Ac5c = NC1(C(=O)O)CCCC1; Butyryl = CCCC(=O)*
Tests used:
MCF7 (breast) = assay: In vitro cytotoxic activity, MTT assay, 72 hours; type: cell-based, human; details: MCF-7, 100 pM
Procedure: (§1) In vitro Cytotoxic Activity of the Novel Synthesized Peptide Analogs
(§2) The cytotoxic activity of synthesized peptides was tested on six human tumor cell lines namely MCF7 (breast), U373 (glioblastoma), PTC, (colon), L132 (lung), Su.86.86 (pancreas), and KB (oral). The tumor cells were collected at exponential growth phase and resuspended in medium (1.5×10^6 cells/ml in RPMI 1640 containing 10% FBS). 150 μL of medium was added to the wells of a 96-well tissue culture plate (Nunc, Denmark) followed by 30 μl of cell suspension. The plate was left in an incubator (37° C., 5% CO2) overnight. 20 μl of the peptide (100 pM to 10 μM concentration) was added to marked wells of the 96-well plate. Each concentration was plated in triplicate. 20 μl of medium alone was added to control wells while wells without cells served as blanks. A total volume of 200 μL was ensured in each well and plate was left in incubator (37° C., 5% CO2). After 72 hours of incubation an MTT assay was performed and percentage cytotoxicity was calculated with respect to control cells.

PTC (colon) = assay: In vitro cytotoxic activity, MTT assay, 72 hours; type: cell-based, human
Procedure: as §1, §2

Su.86.86 (pancreas) = assay: In vitro cytotoxic activity, MTT assay, 72 hours; type: cell-based, human; details: Su8686, 100 pM
Procedure: as §1, §2

[1] = system: human colon adenocarcinoma (PTC) xenografts; assay: In vivo anti tumor activity on PTC tumor xenografts; design: species or system Balb/c athymic nude mice; details: 4.25 μg intravenously twice a day; for Tumor volumes, Average: group average
Procedure: In vivo Anti Tumor Activity of Substance P Analogs on PCT Tumor Xenografts Protocol The anti tumor activity of substance P analogs was studied in human colon adenocarcinoma (PTC) xenografts in nude mice. PTC tumor xenografts were grown in Balb/c athymic nude mice by subcutaneous inoculation of a single cell suspension of PTC cells (15×10^6 cells/100 μL). The tumor bearing animals were divided into 4 groups of three animals each including one group comprising untreated control animals. Treatment with Substance P Receptor Antagonists was initiated when the average tumor volumes, as measured using a vernier caliper, were between 400-800 mm^3. SEQ ID NO:5, SEQ ID NO:7 and SEQ ID NO:8 peptides were prepared at a concentration of 42.5 μg/ml and intravenously administered to the assigned group of tumor bearing animals at a dose of 4.25 μg/100 μL twice a day so that the total dose of 8.5 μg was administered to each animal. The treatment was continued for a period of 10 days. The antitumor activity of the compounds was monitored by measuring 15 tumor volumes every fourth day using the formula W*W*L*0.4 (W=smaller diameter, L=larger diameter). The percentage inhibition of tumor growth was calculated using. the formula (1−tumor volume-treated/ tumor volume-control)×100.

KB (oral) = assay: In vitro cytotoxic activity, MTT assay, 72 hours; type: cell-based, human; details: 100 pM
Procedure: as §1, §2

L132 (lung) = assay: In vitro cytotoxic activity, MTT assay, 72 hours; type: cell-based, human
Procedure: as §1, §2

SCLC cells = details: SCLC proliferation; read-out: IC50, inhibition of SCLC proliferation; cited from earlier work
Swiss 3T3 cells = details: cited from earlier work
SCLC xenografts = details: cited from earlier work
H-510 SCLC cells = details: liquid culture and semi-solid media, read-out: IC50, inhibition of proliferation; cited from earlier work
H-69 SCLC cells = details: liquid culture and semi-solid media, read-out: IC50, inhibition of proliferation; cited from earlier work
H69 SCLC cells = details: cited from earlier work
[2] = system: H69 SCLC cells xenografts; details: xenografts in vivo in nude mice; cited from earlier work

| Molecule | Tumor volumes, animal I ([1]; Day 6) | Tumor volumes, animal II ([1]; Day 6) | Tumor volumes, animal III ([1]; Day 6) | Tumor volumes, Average ([1]; Day 6) | Tumor volumes, animal I ([1]; Day 8) | Tumor volumes, animal II ([1]; Day 8) | Tumor volumes, animal III ([1]; Day 8) | Tumor volumes, Average ([1]; Day 8) | Tumor volumes, animal I ([1]; Day 12) | Tumor volumes, animal II ([1]; Day 12) | Tumor volumes, animal III ([1]; Day 12) | Tumor volumes, Average ([1]; Day 12) | Tumor volumes, animal I ([1]; Day 15) | Tumor volumes, animal II ([1]; Day 15) | Tumor volumes, animal III ([1]; Day 15) | Tumor volumes, Average ([1]; Day 15) | Tumor volumes, animal I ([1]; Day 19) | Tumor volumes, animal II ([1]; Day 19) | Tumor volumes, animal III ([1]; Day 19) | Tumor volumes, Average ([1]; Day 19) | further results |
| --- | --- | --- | --- | --- | --- | --- | --- | --- | --- | --- | --- | --- | --- | --- | --- | --- | --- | --- | --- | --- | --- |
| CC(C)C[C@H](NC(=O)[C@@H](Cc1c[nH]c2ccccc12)NC(=O)[C@H](Cc1ccccc1)NC(=O)[C@@H](Cc1c[nH]c2ccccc12)NC(=O)[C@H](CCC(N)=O)NC(=O)[C@@H](Cc1ccccc1)NC(=O)[C@@H]1CCCN1C(=O)[C@H](CCCCN)NC(=O)[C@@H]1CCCN1C(=O)[C@H](N)CCCNC(=N)N)C(=O)NC1(C(N)=O)CCCC1 [SEQ ID NO: 5, D-Arg-Pro-Lys-Pro-D-Phe-Gln-D-Trp-Phe-D-Trp-Leu-Ac5c-NH2] (H-[dR]PKP[dF]Q[dW]F[dW]L[Ac5c]-NH2; N-terminus assumed) | 307.8 mm^3 | 520 mm^3 | 687.7 mm^3 | 505.1 mm^3 | 748.8 mm^3 | 1149.2 mm^3 | 1411.2 mm^3 | 1103.0 mm^3 | 2049 mm^3 | 3080.3 mm^3 | 3840.0 mm^3 | 2989.7 mm^3 | 3310 mm^3 | 3360 mm^3 | 4480.0 mm^3 | 3716.6 mm^3 | 3582 mm^3 | 1465.6 mm^3 | 3499.2 mm^3 | 2848.9 mm^3 | Percentage cytotoxicity (MCF7 (breast)): Nil; Percentage cytotoxicity (PTC (colon); 100 pM): Nil; Percentage cytotoxicity (PTC (colon); 1 nM): 3.1 ± 0.5%; Percentage cytotoxicity (Su.86.86 (pancreas)): Nil; Tumor volumes, animal II ([1]; Day 22): 100 mm^3; Tumor volumes, animal III ([1]; Day 22): 2560.0 mm^3; Tumor volumes, Average ([1]; Day 22): 1330.0 mm^3 |
| CCCC(=O)N[C@H](CCCNC(=N)N)C(=O)N1CCC[C@H]1C(=O)N[C@@H](CCCCN)C(=O)N1CCC[C@H]1C(=O)N[C@H](Cc1ccccc1)C(=O)N[C@@H](CCC(N)=O)C(=O)N[C@H](Cc1c[nH]c2ccccc12)C(=O)N[C@@H](Cc1ccccc1)C(=O)N[C@H](Cc1c[nH]c2ccccc12)C(=O)N[C@@H](CC(C)C)C(=O)NC1(C(N)=O)CCCC1 [SEQ ID NO: 7, Butanoyl-D-Arg-Pro-Lys-Pro-D-Phe-Gln-D-Trp-Phe-D-Trp-Leu-Ac5c-NH2] (Butyryl-[dR]PKP[dF]Q[dW]F[dW]L[Ac5c]-NH2) | 25.6 mm^3 | 66.6 mm^3 | 0 mm^3 | 30.7 mm^3 | 176.4 mm^3 | 260.1 mm^3 | 72 mm^3 | 169.5 mm^3 | 580.8 mm^3 | 1440 mm^3 | 281.6 mm^3 | 767.4 mm^3 | 946.4 mm^3 | 2427.6 mm^3 | 864 mm^3 | 1412.6 mm^3 | 1741 mm^3 | 2253 mm^3 | 1800 mm^3 | 1931.3 mm^3 | Percentage cytotoxicity (KB (oral)): Nil; Percentage cytotoxicity (L132 (lung); 100 nM): 9 ± 2.3%; Percentage cytotoxicity (L132 (lung); 10 μM): 15 ± 2.3%; Percentage cytotoxicity (PTC (colon); 100 pM): Nil; Percentage cytotoxicity (PTC (colon); 1 nM): Nil; Tumor volumes, animal I ([1]; Day 22): 2018 mm^3; Tumor volumes, animal II ([1]; Day 22): 3110 mm^3; Tumor volumes, animal III ([1]; Day 22): 0 mm^3; Tumor volumes, Average ([1]; Day 22): 1709.3 mm^3 |
| CCCCCCCC(=O)N[C@H](CCCNC(=N)N)C(=O)N1CCC[C@H]1C(=O)N[C@@H](CCCCN)C(=O)N1CCC[C@H]1C(=O)N[C@H](Cc1ccccc1)C(=O)N[C@@H](CCC(N)=O)C(=O)N[C@H](Cc1c[nH]c2ccccc12)C(=O)N[C@@H](Cc1ccccc1)C(=O)N[C@H](Cc1c[nH]c2ccccc12)C(=O)N[C@@H](CC(C)C)C(=O)NC1(C(N)=O)CCCC1 [SEQ ID NO: 8, Octanoyl-D-Arg-Pro-Lys-Pro-D-Phe-Gln-D-Trp-Phe-D-Trp-Leu-Ac5c-NH2] (Octanoyl-[dR]PKP[dF]Q[dW]F[dW]L[Ac5c]-NH2) | 532.4 mm^3 | 291.6 mm^3 | 0 mm^3 | 274.6 mm^3 | 1020.6 mm^3 | 691.2 mm^3 | 0 mm^3 | 570.6 mm^3 | 2080.8 mm^3 | 1440 mm^3 | 156.8 mm^3 | 1225.8 mm^3 | 3880.8 mm^3 | 2592 mm^3 | 580.8 mm^3 | 2351.2 mm^3 | 3520.0 mm^3 | 1474.8 mm^3 | 1710 mm^3 | 2234.9 mm^3 | Tumor volumes, animal I ([1]; Day 22): 2312.0 mm^3; Tumor volumes, animal II ([1]; Day 22): 36 mm^3; Tumor volumes, animal III ([1]; Day 22): 3177 mm^3; Tumor volumes, Average ([1]; Day 22): 1841.6 mm^3 |
| D-MePhe-D-Trp-Phe-D-TrpLeu(psi)-(CH2NH)-Leu-NH2) [Analog 6] |  |  |  |  |  |  |  |  |  |  |  |  |  |  |  |  |  |  |  |  | IC50 (SCLC cells): 2 µM |
| D-MePhe-D-Trp-Phe-DTrp-Leu-MPA [Analog 7] |  |  |  |  |  |  |  |  |  |  |  |  |  |  |  |  |  |  |  |  | IC50 (SCLC cells): 5 µM |
| [Arg^6,D-Trp^7,9, MePhe^8] substance P(6-11) [antagonist G] |  |  |  |  |  |  |  |  |  |  |  |  |  |  |  |  |  |  |  |  | potency relative to antagonist D (Swiss 3T3 cells; blocking bombesin/GRP mediated mitogenesis in Swiss 3T3 cells): ten fold less potent than antagonist D; inhibition of SCLC xenografts in vivo (SCLC xenografts): showed inhibition of SCLC xenografts in vivo |
| [D-Arg^1, D-Phe^5, D-Trp^7,9, Leu^11] substance P [Antagonist D] |  |  |  |  |  |  |  |  |  |  |  |  |  |  |  |  |  |  |  |  | IC50 (H-510 SCLC cells): 5 µM; IC50 (H-69 SCLC cells): 5 µM; potency relative to antagonist A (Swiss 3T3 cells; preventing cellular effects of bombesin/GRP and vasopressin in mouse 3T3 cells, also growth of SCLC cells in serumfree medium): five fold more potent than antagonist A |
| pHOPA-D-Trp-Phe-D-Trp-Leu-Leu-NH2 (pHOPA-[dW]F[dW]LL-NH2; reading uncertain) [Analog R] |  |  |  |  |  |  |  |  |  |  |  |  |  |  |  |  |  |  |  |  | inhibition of proliferation of H69 SCLC cells in vitro (H69 SCLC cells): inhibit the proliferation; inhibition of proliferation of H69 SCLC cells in xenografts [2]: inhibit the proliferation |
